Data on 2 compounds can be found in patent US20080311212A1, “CRYSTALLINE ISOXAZOLE DERIVATIVE AND PHARMACEUTICAL PREPARATION THEREOF” (Dainippon Sumitomo Pharma Co., Ltd., priority 2001, published 2008).

Holding throughout (assay type): physicochemical
Series [1] can be described thus: Crystal type stability on grinding / in aqueous suspension. Particulars: for change of crystal type during grinding: α: wet grinding under high-pressure conditions, suspended in water, β: pneumatic and wet grinding. The text has this: When the α type crystals were subjected to pneumatic grinding, they adhered remarkably to the inside of a grinding apparatus. Therefore, their pulverization to a desirable size by one run of grinding operation was difficult, so that it was necessary to grind them repeatedly several times. Since it often became necessary to remove the crystals adhering to the inside, the grinding efficiency and the yield were low.
When the β type crystals were subjected to pneumatic grinding, they hardly adhered to the inside of a grinding apparatus, were easy to handle in a process of their formulation into a pharmaceutical preparation, and could be continuously ground. The β type crystals could easily be ground also by a wet grinding method and made it possible to produce finer powder that could be formulated into a pharmaceutical preparation.
The β type crystals of the present invention may be obtained also by stirring phosphate or a type crystals of the isoxazole derivative of the formula 1 in a suspended state in water for a definite time. In the case of the phosphate, the β type crystals could be obtained, for example, by stirring the phosphate at 50° C. for about 5 hours. […] So long as seed crystals for the β type crystals are used, it is also possible to produce the β type crystals by using any of hydrophobic organic solvents such as aromatic hydrocarbons (e.g. toluene and benzene), ethers (e.g. t-butyl methyl ether, diisopropyl ether and diethyl ether), aliphatic hydrocarbons (e.g. cyclohexane, hexane and heptane), halogen-containing solvents (e.g. chloroform, methylene chloride and 1,2-dichloroethane) and esters (e.g. ethyl acetate). For example, the isoxazole derivative of the formula 1 may be crystallized by dissolving the derivative in a mixed solvent of toluene and 2-propanol and adding hexane thereto.

Series [2] in a line: Dry pneumatic grinding of crystals 1 (A-O Jet Mill): amount adhering to inside of apparatus. Particulars: 7 g crystals charged, pneumatic grinding at 0.49 MPa. From the text:
Crystals were charged into an A-O Jet Mill (mfd. by Seishin Enterprise Co., Ltd.) and subjected to pneumatic grinding at a forcing pressure of 0.49 MPa and a grinding pressure of 0.49 MPa.

Series [3] can be described thus: Dry pneumatic grinding of crystals 2 (Jet O Mill): particle size distribution of ground crystals. The conditions noted are these: one run of dry pneumatic grinding, 0.44-0.49 MPa, laser diffraction (dry measurement). The text has this: Crystals were charged into a Jet 0 Mill Model JOMO101 (mfd. by Seishin Enterprise Co., Ltd.) and subjected to pneumatic grinding at a forcing pressure and a grinding pressure (which had been set at the same pressure) of 0.44 MPa to 0.49 MPa. […] A laser diffraction particle size distribution meter (dry measurement) was used for measuring the particle size distribution. It has already been confirmed that repeated grinding or the increase of the grinding pressure is necessary for further particle size reduction.

The nature of series [4]: Wet high-pressure grinding of crystals (Microfluidizer): particle size distribution of ground crystals. Particulars: wet high-pressure grinding in water, 100 MPa, laser diffraction (wet measurement). The protocol: Crystals were charged into Microfluidizer Model M110Y (mfd. by Mizuho Industrial Co., Ltd.) together with water and subjected to high-pressure grinding. […] In this case, the α type crystals were solidified during the grinding. […] The particle size distribution was measured by dispersing the ground crystals in water in an agate mortar. A laser diffraction particle size distribution meter (wet measurement) was used for measuring the particle size distribution.

For the compound `C[C@@H](c1ccc(-c2ccccc2)c(F)c1)c1cc(/N=C(/N)N2CCOCC2)on1` [α type crystals, 3-[(1S)-1-(2-fluorobiphenyl-4-yl)ethyl]-5-{[amino(morpholin-4-yl)methylene]amino}isoxazole], in series [1], the “change of crystal type during grinding” value is recorded as “changed to the β type crystals”. In series [2], this compound returned an Adhering amount of 2.06 g. The “Undersize particle D50% particle size” value is on record as 79.3 μm in series [3] (D50%), 27.6 μm in series [3] (first D50% line), 58.1 μm in series [4] (D50%) and 26.1 μm in series [4] (first D50% line).

On to `C[C@@H](c1ccc(-c2ccccc2)c(F)c1)c1cc(/N=C(/N)N2CCOCC2)on1` [β type crystals, 3-[(1S)-1-(2-fluorobiphenyl-4-yl)ethyl]-5-{[amino(morpholin-4-yl)methylene]amino}isoxazole], for which, in series [1] (stirring phosphate or α type crystals suspended in water gives β type crystals), the “thermodynamic stability of crystal type” value is “thermodynamically more stable than the α type crystals”. Further, in series [1], the “change of crystal type during grinding” value was “did not change the crystal type”. The Adhering amount in series [2] was 0.00 g. Besides, the “Undersize particle D50% particle size” value is listed as 10.2 μm in series [3] (D50%), 4.7 μm in series [3] (first D50% line), 3.2 μm in series [4] (D50%) and 1.7 μm in series [4] (first D50% line).
